Where two headings read alike, the source gives them in different places.

Type in all cases: cell-based
Assay [1] relates to clinically isolated coliform bacterium. Put plainly: Example 5: in vitro M.I.C. of IV, various penicillins and 1:1 combinations. Here is the method:
(§1) Tryptose phosphate broth, containing the appropriate concentrations of the compounds or of the combination of them, was inoculated with 0.5×10^4 -5×10^4 organisms of the various microorganisms tested and incubated overnight at 37° C. Minimum inhibitory concentrations (M.I.C.) were taken as the concentrations of the compounds or of the combination at which no visible growth occurred.
Using the same technique as described in Example 1 the in vitro activity of 6[(piperidyl-1)-methyleneamino]-penicillianic acid (IV), of various penicillins, and of 1:1 combinations of IV with these penicillins, was determined against a clinically isolated coliform bacterium.

Assay [2] relates to Klebsiella-Enterobacter (strain 4/71). Put plainly: Example 10: in vitro M.I.C. of II, cephalosporins and 1:1 combinations. Here is the method:
as §1
Using the same technique as described in Example 1 the in vitro activity of 6-[(hexahydro-1H-azepin-1-yl)methyleneamino]penicillanic acid (II), of various cephalosporins previously mentioned in this specification, and of 1:1 combinations of II with these cephalosporins was determined against a clinically isolated strain of Klebsiella-Enterobacter (strain 4/71)

Assay [3] has as its system Proteus (Proteus Mirabilis I 190). Put plainly: Example 11: in vitro M.I.C. of II, cephalosporins and 1:1 combinations. Here is the method: as §1
Using the same technique as described in Example 1 the in vitro activity of 6-[(hexahydro-1H-azepin-1-yl)methyleneamino]penicillanic acid (II), of various cephalosporins and of 1:1 combinations of II with these cephalosporins was determined against a clinically isolated strain of Proteus (Proteus Mirabilis I 190).

The mark [4] stands for this setting: Klebsiella-Enterobacter strain 4/71, read-out: M.I.C.
The mark [5] stands for this setting: Proteus Mirabilis I 190, read-out: M.I.C.

As to `CC1(C)S[C@@H]2[C@H](NC(=O)Cc3ccccc3)C(=O)N2[C@H]1C(=O)O` [benzylpenicillin], the MIC in assay [1] came to 25 µg/mL. On to `CC(=O)OCC1=C(C(=O)O)N2C(=O)C(NC(=O)CSc3ccccc3)C2SC1` (stereo not drawn) [EPC 825/1], for which the MIC is over 100 µg/mL in assay [2] (setting [4]) and 25 µg/mL in assay [3] (setting [5]). With `O=C(Cc1cccs1)N[C@@H]1C(=O)N2C(C(=O)[O-])=C(C[n+]3ccccc3)CS[C@H]12` [Cephaloridine], the MIC in assay [2] (setting [4]) came to 25 µg/mL; in assay [3] (setting [5]), 6.25 µg/mL. As for `CC1(C)S[C@@H]2[C@H](NC(=O)[C@H](N=[N+]=[N-])c3ccccc3)C(=O)N2[C@H]1C(=O)O` [6-(D-α-azidophenylacetamido)penicillanic acid], the MIC in assay [1] amounted to 50 µg/mL. In the case of `Cc1nnc(SCC2=C(C(=O)O)N3C(=O)[C@@H](NC(=O)Cn4cnnn4)[C@H]3SC2)s1` [Cephazoline], the MIC in assay [2] (setting [4]) amounted to 12.5 µg/mL; in assay [3] (setting [5]), 6.25 µg/mL. On to `CC1(C)S[C@@H]2[C@H](NC(=O)C(C(=O)O)c3ccccc3)C(=O)N2[C@H]1C(=O)O` (stereo partly drawn) [α-carboxybenzylpenicillin], for which, in assay [1], the MIC is 12.5 µg/mL. `CC(=O)OCC1=C(C(=O)O)N2C(=O)C(NC(=O)Cc3cccc(Cl)c3)C2SC1` (stereo not drawn) [EPC 820/1b]: the results for the MIC in assay [2] (setting [4]) and in assay [3] (setting [5]) were over 100 µg/mL and 50 µg/mL, respectively. The corresponding values for `CC(=O)OCC1=C(C(=O)O)N2C(=O)C(NC(=O)Cc3ccccc3)C2SC1` (stereo not drawn) [EPC 807 2/b] are over 100 µg/mL and 25 µg/mL.

`CC1=C(C(=O)O)N2C(=O)[C@@H](NC(=O)[C@H](N)c3ccccc3)[C@H]2SC1` [Cephalexine]: the MIC in assay [2] (setting [4]) was 50 µg/mL; in assay [3] (setting [5]), 25 µg/mL.

Turning to `[N-]=[N+]=NCC1=C(C(=O)O)N2C(=O)C(NC(=O)Cc3cccs3)C2SC1` (stereo not drawn) [EPC 821/4II], the values for the MIC in assay [2] (setting [4]) and in assay [3] (setting [5]) were 100 µg/mL and 12.5 µg/mL, respectively.

As to `CC(=O)OCC1=C(C(=O)O)N2C(=O)[C@@H](NC(=O)Cc3cccs3)[C@H]2SC1` [VI, cephalotin], the values for the MIC in assay [2] and in assay [3] were 50 µg/mL and 3.12 µg/mL, respectively.

For `CC(=O)OCC1=C(C(=O)O)N2C(=O)[C@@H](NC(=O)CC#N)[C@H]2SC1` [Cephacetrile], the MIC turned out to be 50 µg/mL in assay [2] (setting [4]) and 12.5 µg/mL in assay [3] (setting [5]).

For the origin of these results see patent US4221781A, “Synergistic penicillin-cephalosporin compositions and methods” (priority 1971, dated 1980).
